We go through 22 compounds from US9586949B2, “Aza-heteroaryl compounds as PI3K-gamma inhibitors” (Incyte Corporation, priority 2015, dated 2017).

Test [1] addresses PI3Kγ (p110γ) Recombinant Human Protein (Homo sapiens (Human), UniProt P48736). As to the kind of experiment: PI3K-γ Scintillation Proximity Assay. It counts as biochemical. Particulars: 20 μM PIP2, 2 μM ATP, 13 nM PI3Kγ, 120 min; read-out: PI3K-gamma SPA IC50. The method, then: [γ-^33P]ATP (10 mCi/mL) and Wheat Germ Agglutinin (WGA) YSi SPA Scintillation Beads was purchased from Perkin-Elmer (Waltham, Mass.). […] PI3Kγ (p110γ) Recombinant Human Protein was purchased from Life technology (Grand Island, N.Y.). ATP, MgCl2, DTT, EDTA, MOPS and CHAPS were purchased from Sigma-Aldrich (St. Louis, Mo.).
The kinase reaction was conducted in polystyrene 384-well Greiner Bio-one white plate from Thermo Fisher Scientific in a final volume of 25 μL. Inhibitors were first diluted serially in DMSO and added to the plate wells before the addition of other reaction components. The final concentration of DMSO in the assay was 2%. The PI3Kγ assay was carried out at room temperature in 20 mM MOPS, pH 6.7, 10 mM MgCl2, 5 mM DTT and CHAPS 0.03%. Reactions were initiated by the addition of ATP, the final reaction mixture consisted of 20 μM PIP2, 2 μM ATP, 0.5 μCi [γ-^33P] […] The final concentration of SPA beads is 1.0 mg/mL. After the plate sealing, plates were shaken overnight at room temperature and centrifuged at 1500 rpm for 10 min, the radioactivity of the product was determined by scintillation counting on Topcount (Perkin-Elmer). IC50 determination was performed by fitting the curve of percent of the solvent control activity versus the log of the inhibitor concentration using the GraphPad Prism 6.0 software.
For orientation: SPA uses beads or plates that emit light when radiolabelled molecules are held near them.

Test [2] deals with PI3Kδ (p110δ/p85α) Recombinant Human Protein (Homo sapiens (Human), UniProt O00329). As to the kind of experiment: PI3Kδ Scintillation Proximity Assay. It counts as biochemical. Particulars: 20 μM PIP2, 2 μM ATP, 3.4 nM PI3Kδ, 120 min; read-out: PI3K-delta SPA IC50. The text has this: [γ-^33P]ATP (10 mCi/mL) and Wheat Germ Agglutinin (WGA) YSi SPA Scintillation Beads was purchased from Perkin-Elmer (Waltham, Mass.). Lipid kinase substrate, D-myo-Phosphatidylinositol 4,5-bisphosphate (PtdIns(4,5)P2)D (+)-sn-1,2-di-O-octanoylglyceryl, 3-O-phospho linked (PIP2), CAS 204858-53-7, was purchased from Echelon Biosciences (Salt Lake City, Utah). PI3Kδ (p110δ/p85α) Recombinant Human Protein was purchased from Eurofins (St Charles, Mo.). ATP, MgCl2, DTT, EDTA, MOPS and CHAPS were purchased from Sigma-Aldrich (St. Louis, Mo.).
Chain of PI3Kδ (p110δ/p85α) Recombinant Human Protein (O00329 whole entry): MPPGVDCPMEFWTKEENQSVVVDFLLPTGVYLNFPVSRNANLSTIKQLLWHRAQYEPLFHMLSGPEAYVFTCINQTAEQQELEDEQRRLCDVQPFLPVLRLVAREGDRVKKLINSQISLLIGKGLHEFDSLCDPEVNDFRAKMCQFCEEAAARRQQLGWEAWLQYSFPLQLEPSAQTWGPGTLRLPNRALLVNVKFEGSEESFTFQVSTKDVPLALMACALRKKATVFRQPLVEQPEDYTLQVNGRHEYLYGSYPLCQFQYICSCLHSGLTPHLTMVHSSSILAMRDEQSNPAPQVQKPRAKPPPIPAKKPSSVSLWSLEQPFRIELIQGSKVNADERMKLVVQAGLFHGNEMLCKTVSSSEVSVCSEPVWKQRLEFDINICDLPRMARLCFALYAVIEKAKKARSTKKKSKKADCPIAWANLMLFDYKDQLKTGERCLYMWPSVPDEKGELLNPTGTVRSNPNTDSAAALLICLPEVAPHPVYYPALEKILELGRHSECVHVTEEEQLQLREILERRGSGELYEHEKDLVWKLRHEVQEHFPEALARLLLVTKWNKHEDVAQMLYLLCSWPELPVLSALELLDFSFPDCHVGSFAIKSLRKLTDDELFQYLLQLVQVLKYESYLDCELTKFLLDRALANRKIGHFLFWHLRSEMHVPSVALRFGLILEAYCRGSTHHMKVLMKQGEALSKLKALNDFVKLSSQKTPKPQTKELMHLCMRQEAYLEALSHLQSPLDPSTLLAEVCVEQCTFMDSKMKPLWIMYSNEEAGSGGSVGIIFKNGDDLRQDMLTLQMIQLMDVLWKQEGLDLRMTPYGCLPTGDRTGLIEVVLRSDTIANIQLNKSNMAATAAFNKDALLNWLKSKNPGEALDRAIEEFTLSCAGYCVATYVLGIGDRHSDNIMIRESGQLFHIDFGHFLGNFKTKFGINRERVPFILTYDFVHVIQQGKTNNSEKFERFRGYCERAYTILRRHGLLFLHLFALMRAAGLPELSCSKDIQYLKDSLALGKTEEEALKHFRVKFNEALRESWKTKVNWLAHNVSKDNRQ
Chain of PI3Kδ (p110δ/p85α) Recombinant Human Protein (P27986 whole entry partner): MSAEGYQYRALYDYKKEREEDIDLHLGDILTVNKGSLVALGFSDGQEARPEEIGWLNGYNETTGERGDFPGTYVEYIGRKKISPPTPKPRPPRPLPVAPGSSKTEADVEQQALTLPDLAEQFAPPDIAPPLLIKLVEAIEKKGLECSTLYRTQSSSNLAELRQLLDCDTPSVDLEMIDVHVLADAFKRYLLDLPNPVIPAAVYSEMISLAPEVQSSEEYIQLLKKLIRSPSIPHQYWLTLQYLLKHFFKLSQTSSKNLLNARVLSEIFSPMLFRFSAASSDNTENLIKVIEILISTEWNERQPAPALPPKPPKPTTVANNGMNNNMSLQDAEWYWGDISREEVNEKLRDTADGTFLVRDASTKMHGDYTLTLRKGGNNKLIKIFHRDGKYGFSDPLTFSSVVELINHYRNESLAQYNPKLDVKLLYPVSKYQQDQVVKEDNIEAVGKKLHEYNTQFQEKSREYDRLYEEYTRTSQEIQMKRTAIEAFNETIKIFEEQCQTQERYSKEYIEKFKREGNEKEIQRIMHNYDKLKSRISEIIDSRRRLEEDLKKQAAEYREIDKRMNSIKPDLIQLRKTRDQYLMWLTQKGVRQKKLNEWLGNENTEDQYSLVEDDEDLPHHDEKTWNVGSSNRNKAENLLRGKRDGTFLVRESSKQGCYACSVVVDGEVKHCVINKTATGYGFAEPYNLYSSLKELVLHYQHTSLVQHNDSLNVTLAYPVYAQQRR
The kinase reaction was conducted in polystyrene 384-well Greiner Bio-one white plate from Thermo Fisher Scientific in a final volume of 25 μL. Inhibitors were first diluted serially in DMSO and added to the plate wells before the addition of other reaction components. The final concentration of DMSO in the assay was 2%. The PI3Kδ assay was carried out at room temperature in 20 mM MOPS, pH 6.7, 10 mM MgCl2, 5 mM DTT and CHAPS 0.03%. Reactions were initiated by the addition of ATP, the final reaction mixture consisted of 20 μM PIP2, 2 μM ATP, 0.5 μCi [γ-^33P] ATP, 3.4 nM PI3Kδ. Reactions were incubated for 120 min and terminated by the addition of 40 μL SPA beads suspended in quench buffer: 163 mM potassium phosphate pH 7.8, 20% glycerol, 25 mM EDTA. The final concentration of SPA beads is 1.0 mg/mL. After the plate sealing, plates were shaken overnight at room temperature and centrifuged at 1500 rpm for 10 min, the radioactivity of the product was determined by scintillation counting on Topcount (Perkin-Elmer). IC50 determination was performed by fitting the curve of percent of the solvent control activity versus the log of the inhibitor concentration using the GraphPad Prism 6.0 software.

Chain of PI3Kγ (p110γ) Recombinant Human Protein (P48736 whole entry): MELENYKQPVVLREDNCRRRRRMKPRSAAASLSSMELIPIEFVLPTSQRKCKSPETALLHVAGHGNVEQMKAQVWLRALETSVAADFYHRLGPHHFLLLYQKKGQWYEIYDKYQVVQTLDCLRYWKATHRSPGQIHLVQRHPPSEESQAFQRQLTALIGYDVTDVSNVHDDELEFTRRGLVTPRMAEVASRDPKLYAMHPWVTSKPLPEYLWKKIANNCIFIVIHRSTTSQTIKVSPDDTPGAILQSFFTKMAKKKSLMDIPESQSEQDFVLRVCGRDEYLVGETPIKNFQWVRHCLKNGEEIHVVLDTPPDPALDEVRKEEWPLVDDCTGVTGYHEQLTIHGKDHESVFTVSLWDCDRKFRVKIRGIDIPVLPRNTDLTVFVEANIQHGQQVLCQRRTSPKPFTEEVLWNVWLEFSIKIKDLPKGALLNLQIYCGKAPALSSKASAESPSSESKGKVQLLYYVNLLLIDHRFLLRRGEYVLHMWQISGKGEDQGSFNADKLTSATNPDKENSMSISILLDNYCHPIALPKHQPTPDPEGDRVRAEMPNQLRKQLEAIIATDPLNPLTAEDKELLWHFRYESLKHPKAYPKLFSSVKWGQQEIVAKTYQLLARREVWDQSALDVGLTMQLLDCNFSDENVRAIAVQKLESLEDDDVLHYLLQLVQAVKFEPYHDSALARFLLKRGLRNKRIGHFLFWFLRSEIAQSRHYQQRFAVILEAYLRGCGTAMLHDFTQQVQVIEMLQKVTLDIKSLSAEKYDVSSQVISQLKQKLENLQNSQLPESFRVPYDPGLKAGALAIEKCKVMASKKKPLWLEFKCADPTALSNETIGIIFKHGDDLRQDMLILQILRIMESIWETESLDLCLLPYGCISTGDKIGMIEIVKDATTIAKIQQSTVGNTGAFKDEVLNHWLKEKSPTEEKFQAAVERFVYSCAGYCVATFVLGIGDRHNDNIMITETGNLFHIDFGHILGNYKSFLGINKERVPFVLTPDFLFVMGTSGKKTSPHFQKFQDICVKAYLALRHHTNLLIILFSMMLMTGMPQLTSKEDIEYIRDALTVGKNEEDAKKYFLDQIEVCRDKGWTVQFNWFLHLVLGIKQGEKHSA

Turning to `CCn1cc2ccc(-c3ccc4nc(-c5nc6ccccc6[nH]5)oc4c3)cc2n1` [Example 53, 2-(1H-benzimidazol-2-yl)-6-(2-ethyl-2H-indazol-6-yl)-1,3-benzoxazole bis(trifluoroacetate)], the IC50 in test [1] is below 250 nM; in test [2] it was at least 5000 nM.
For `CCn1ncc2ccc(-c3ccc4nc(-c5nc6ccccc6[nH]5)oc4c3)cc21` [Example 54, 2-(1H-benzimidazol-2-yl)-6-(1-ethyl-1H-indazol-6-yl)-1,3-benzoxazole bis(trifluoroacetate)], the IC50 in test [1] was below 250 nM; in test [2] it was at least 5000 nM.
For `c1ccc(CN2CCN(c3ccc4nc(-c5nc6ccccc6[nH]5)oc4c3)CC2)cc1` [Example 55, 2-(1H-Benzimidazol-2-yl)-6-(4-benzylpiperazin-1-yl)-1,3-benzoxazole tris(trifluoroacetate)], the IC50 was below 5000 nM in test [1] and at least 5000 nM in test [2].
As to `Nc1ncc(-c2ccc3nc(-c4nc5ccccc5[nH]4)oc3c2)cc1C(F)(F)F` [Example 56, 5-[2-(1H-Benzimidazol-2-yl)-1,3-benzoxazol-6-yl]-3-(trifluoromethyl)pyridin-2-amine bis(trifluoroacetate)], the IC50 in test [1] is below 250 nM; in test [2], at least 5000 nM.
In the case of `CCn1ncc2ncc(-c3ccc4nc(-c5nc6ccccc6[nH]5)oc4c3)cc21` [Example 57, 6-[2-(1H-Benzimidazol-2-yl)-1,3-benzoxazol-6-yl]-1-ethyl-1H-pyrazolo[4,3-b]pyridine tris(trifluoroacetate)], the values for the IC50 in test [1] and in test [2] were below 250 nM and below 1000 nM, respectively.
On the same counts, the results for `O=S(=O)(c1cncc(-c2ccc3nc(-c4nc5ccccc5[nH]4)oc3c2)c1)N1CCC(O)C1` (centres unmarked) [Example 58, 1-({5-[2-(1H-Benzimidazol-2-yl)-1,3-benzoxazol-6-yl]pyridin-3-yl}sulfonyl)pyrrolidin-3-ol bis(trifluoroacetate)] are below 250 nM and below 1000 nM.
The like results for `CCNS(=O)(=O)c1cncc(-c2ccc3nc(-c4nc5ccccc5[nH]4)oc3c2)c1` [Example 59, 5-[2-(1H-Benzimidazol-2-yl)-1,3-benzoxazol-6-yl]-N-ethylpyridine-3-sulfonamide bis(trifluoroacetate)] were, in that order, below 250 nM and at least 5000 nM.
On to `CCS(=O)(=O)Nc1cc(-c2ccc3nc(-c4nc5ccccc5[nH]4)oc3c2)ccc1F` [Example 60, N-{5-[2-(1H-Benzimidazol-2-yl)-1,3-benzoxazol-6-yl]-2-fluorophenyl}ethanesulfonamide], for which the IC50 in test [1] was below 250 nM; in test [2], at least 5000 nM.
`OC(c1cncc(-c2ccc3nc(-c4ncc[nH]4)oc3c2)c1)C(F)(F)F` (centres unmarked) [Example 61, 1-(5-(2-(1H-Imidazol-2-yl)benzo[d]oxazol-6-yl)pyridin-3-yl)-2,2,2-trifluoroethanol bis(trifluoroacetate)]: the IC50 in test [1] and in test [2] was below 250 nM in each case.
For the compound `Cc1nc(-c2nc3ccc(-c4cncc(S(C)(=O)=O)c4)cc3o2)[nH]c1C` [Example 62, 2-(4,5-Dimethyl-1H-imidazol-2-yl)-6-(5-(methylsulfonyl)pyridin-3-yl)benzo[d]oxazole bis(trifluoroacetate)], the IC50 in test [1] was below 1000 nM; in test [2], below 5000 nM.
For the compound `CCS(=O)(=O)Nc1cncc(-c2ccc3nc(-c4nc(C)c(C)[nH]4)oc3c2)c1` [Example 63, N-(5-(2-(4,5-Dimethyl-1H-imidazol-2-yl)benzo[d]oxazol-6-yl)pyridin-3-yl)ethanesulfonamide bis(trifluoroacetate)], the IC50 in test [1] was below 250 nM; in test [2], below 1000 nM.
With `CCCc1nc(-c2nc3ccc(-c4cncc(NS(=O)(=O)CC)c4)cc3o2)[nH]c1C` [Example 64, N-(5-(2-(5-Methyl-4-propyl-1H-imidazol-2-yl)benzo[d]oxazol-6-yl)pyridin-3-yl)ethanesulfonamide bis(trifluoroacetate)], the IC50 in test [1] and in test [2] was below 250 nM in each case.
Turning to `CCS(=O)(=O)Nc1cc(-c2ccc3nc(-c4nc(C)c(C)[nH]4)oc3c2)cnc1OC` [Example 65, N-(5-(2-(4,5-Dimethyl-1H-imidazol-2-yl)benzo[d]oxazol-6-yl)-2-methoxypyridin-3-yl)ethanesulfonamide bis(trifluoroacetate)], the IC50 in test [1] and in test [2] was below 250 nM in each case.
With `CCS(=O)(=O)Nc1cc(-c2ccc3nc(-c4nc5c([nH]4)CCCC5)oc3c2)cnc1OC` [Example 66, N-(2-Methoxy-5-(2-(4,5,6,7-tetrahydro-1H-benzo[d]imidazol-2-yl)benzo[d]oxazol-6-yl)pyridin-3-yl)ethanesulfonamide], the IC50 in test [1] and in test [2] was below 250 nM in each case.
`Cc1nc(-c2nc3ccc(-c4cncc(C(O)C(F)(F)F)c4)cc3o2)[nH]c1C` (centres unmarked) [Example 67, 1-(5-(2-(4,5-Dimethyl-1H-imidazol-2-yl)benzo[d]oxazol-6-yl)pyridin-3-yl)-2,2,2-trifluoroethanol bis(trifluoroacetate)]: the IC50 in test [1] and in test [2] was below 250 nM each time.
`OC(c1cncc(-c2ccc3nc(-c4nc5c([nH]4)CCCC5)oc3c2)c1)C(F)(F)F` (centres unmarked) [Example 68, 2,2,2-Trifluoro-1-(5-(2-(4,5,6,7-tetrahydro-1H-benzo[d]imidazol-2-yl)benzo[d]oxazol-6-yl)pyridin-3-yl)ethanol]: the IC50 in test [1] and in test [2] was below 250 nM in each case.
Consider `COc1cc(-c2ccc3nc(-c4nc5ccccc5[nH]4)oc3c2)cnc1F` [Example 69, 2-(1H-Benzo[d]imidazol-2-yl)-6-(6-fluoro-5-methoxypyridin-3-yl)benzo[d]oxazole bis(trifluoroacetate)], for which the IC50 in test [1] was below 250 nM; in test [2] it was at least 5000 nM.
`Fc1ncc(-c2ccc3nc(-c4nc5ccccc5[nH]4)oc3c2)cn1` [Example 70, 2-(1H-Benzo[d]imidazol-2-yl)-6-(2-fluoro-pyrimidin-5-yl)benzo[d] oxazole bis(trifluoroacetate)]: the IC50 in test [1] was below 1000 nM; in test [2] it was at least 5000 nM.
With `O=C(O)Cc1cncc(-c2ccc3nc(-c4nc5ccccc5[nH]4)oc3c2)c1` [Example 71, 2-(5-(2-(1H-Benzo [d]imidazol-2-yl)benzo[d]oxazol-6-yl)pyridin-3-yl)acetic acid], the IC50 in test [1] was below 1000 nM; in test [2] it was below 5000 nM.
Turning to `CP(C)(=O)c1cncc(-c2ccc3nc(-c4nc5ccccc5[nH]4)oc3c2)c1` [Example 72, 2-(1H-Benzo[d]imidazol-2-yl)-6-(5-(dimethyl-phosphoryl)pyridin-3-yl)benzo[d]oxazole bis(trifluoroacetate)], the IC50 in test [1] is below 250 nM; in test [2], below 5000 nM.
Consider `CCS(=O)(=O)N(C)c1cncc(-c2ccc3nc(-c4nc5ccccc5[nH]4)oc3c2)c1` [Example 73, N-(5-(2-(1H-Benzo [d]imidazol-2-yl)benzo [d]oxazol-6-yl)pyridin-3-yl)-N-methylethanesulfonamide bis(trifluoroacetate)], for which the IC50 in test [1] is below 250 nM; in test [2], below 5000 nM.
Regarding `OC(c1cncc(-c2ccc3nc(-c4nc5ccccc5[nH]4)oc3c2)c1)C(F)(F)F` (centres unmarked) [Example 74, 1-(5-(2-(1H-Benzo [d]imidazol-2-yl)benzo [d]oxazol-6-yl)pyridin-3-yl)-2,2,2-trifluoroethanol bis(trifluoroacetate)], the IC50 in test [1] and in test [2] was below 250 nM in each case.
